According to PMC7614683, “A small molecule PI3Kα activator for cardioprotection and neuroregeneration” (Nature, 2023):

Target: T1, full length p110α/p85α (Homo sapiens, UniProt P42336)
T1 construct: Full-length human p110α was expressed either in a complex with full-length human p85α (for HTS, biochemistry and HDX-MS); 6xHis tag followed by TEV protease site (N); host or cells: Spodoptera frugiperda Sf9, baculovirus
Assay: HDX-MS
Assay type: binding
Description: Sample preparation: HDX-MS experiments were carried out as described previously. […] In total, three biological replicates, i.e. three separate protein preparations, each with exchange experiments carried out in triplicate were conducted. Data presented in the manuscript is a single biological replicate. Data acquisition and analysis were as follows: Each sample was thawed and injected onto an M-Class Acquity UPLC with HDX Technology (Waters) kept at 0.1°C. Proteins were digested in-line using an Enzymate Pepsin Column (Waters, #186007233) at 15°C for 2 min at 200 μl/min. Peptic peptides were then eluted onto an Acquity UPLC BEH C18 Column (Waters, #186002346) equilibrated in Pepsin-A buffer (0.1% formic acid) and separated using a 5-35% gradient of Pepsin-B buffer (0.1% formic acid, 99% acetonitrile) over 7 min at a flowrate of 40 μl/min. Data were collected on a Waters Cyclic IMS, with an electrospray ionisation source, from 50-2000 m/z. Data were collected in the HDMS^E mode. A single pass of the cyclic IMS was conducted. A “blank” sample of protein dilution buffer with quench was run between samples, and carry-over of peptides was routinely monitored. Five replicates were used to identify non-deuterated peptides. Criteria used to include peptides in the HDX-MS dataset were: minimum intensity 5000, minimum sequence length 5, maximum sequence length 25, a minimum of 3 fragment ions, a minimum of 0.1 products per amino acid, a minimum score of 6.62, a maximum MH+ Error of 10 ppm, identification in at least two datasets with a retention time RSD of less than 10%. Data was analysed using Protein Lynx Global Server (Waters) and DynamX (Waters). All peptides were manually inspected for EX1 kinetics and sufficient quality of the peptide envelope. Data quality, experiment design, and reporting of data meets the criteria as determined by the HDX-MS community. Uptake files were created using Baryonyx. Data are available via ProteomeXchange with identifier PXD037721.

[1] = PK3CA_HUMAN peptide 334-341, time point 1 of 5
[2] = PK3CA_HUMAN peptide 334-341, time point 2 of 5
[3] = PK3CA_HUMAN peptide 334-341, time point 3 of 5
[4] = PK3CA_HUMAN peptide 334-341, time point 4 of 5
[5] = PK3CA_HUMAN peptide 334-341, time point 5 of 5
[6] = PK3CA_HUMAN peptide 342-356, time point 1 of 5
[7] = PK3CA_HUMAN peptide 342-356, time point 2 of 5
[8] = PK3CA_HUMAN peptide 342-356, time point 3 of 5
[9] = PK3CA_HUMAN peptide 342-356, time point 4 of 5
[10] = PK3CA_HUMAN peptide 342-356, time point 5 of 5
[11] = PK3CA_HUMAN peptide 356-368, time point 1 of 5
[12] = PK3CA_HUMAN peptide 356-368, time point 2 of 5
[13] = PK3CA_HUMAN peptide 356-368, time point 3 of 5
[14] = PK3CA_HUMAN peptide 356-368, time point 4 of 5
[15] = PK3CA_HUMAN peptide 356-368, time point 5 of 5
[16] = PK3CA_HUMAN peptide 369-380, time point 1 of 5
[17] = PK3CA_HUMAN peptide 369-380, time point 2 of 5
[18] = PK3CA_HUMAN peptide 369-380, time point 3 of 5
[19] = PK3CA_HUMAN peptide 369-380, time point 4 of 5
[20] = PK3CA_HUMAN peptide 369-380, time point 5 of 5
[21] = PK3CA_HUMAN peptide 371-380, time point 1 of 5
[22] = PK3CA_HUMAN peptide 371-380, time point 2 of 5
[23] = PK3CA_HUMAN peptide 371-380, time point 3 of 5
[24] = PK3CA_HUMAN peptide 371-380, time point 4 of 5
[25] = PK3CA_HUMAN peptide 371-380, time point 5 of 5

T1 sequence (P42336 whole entry): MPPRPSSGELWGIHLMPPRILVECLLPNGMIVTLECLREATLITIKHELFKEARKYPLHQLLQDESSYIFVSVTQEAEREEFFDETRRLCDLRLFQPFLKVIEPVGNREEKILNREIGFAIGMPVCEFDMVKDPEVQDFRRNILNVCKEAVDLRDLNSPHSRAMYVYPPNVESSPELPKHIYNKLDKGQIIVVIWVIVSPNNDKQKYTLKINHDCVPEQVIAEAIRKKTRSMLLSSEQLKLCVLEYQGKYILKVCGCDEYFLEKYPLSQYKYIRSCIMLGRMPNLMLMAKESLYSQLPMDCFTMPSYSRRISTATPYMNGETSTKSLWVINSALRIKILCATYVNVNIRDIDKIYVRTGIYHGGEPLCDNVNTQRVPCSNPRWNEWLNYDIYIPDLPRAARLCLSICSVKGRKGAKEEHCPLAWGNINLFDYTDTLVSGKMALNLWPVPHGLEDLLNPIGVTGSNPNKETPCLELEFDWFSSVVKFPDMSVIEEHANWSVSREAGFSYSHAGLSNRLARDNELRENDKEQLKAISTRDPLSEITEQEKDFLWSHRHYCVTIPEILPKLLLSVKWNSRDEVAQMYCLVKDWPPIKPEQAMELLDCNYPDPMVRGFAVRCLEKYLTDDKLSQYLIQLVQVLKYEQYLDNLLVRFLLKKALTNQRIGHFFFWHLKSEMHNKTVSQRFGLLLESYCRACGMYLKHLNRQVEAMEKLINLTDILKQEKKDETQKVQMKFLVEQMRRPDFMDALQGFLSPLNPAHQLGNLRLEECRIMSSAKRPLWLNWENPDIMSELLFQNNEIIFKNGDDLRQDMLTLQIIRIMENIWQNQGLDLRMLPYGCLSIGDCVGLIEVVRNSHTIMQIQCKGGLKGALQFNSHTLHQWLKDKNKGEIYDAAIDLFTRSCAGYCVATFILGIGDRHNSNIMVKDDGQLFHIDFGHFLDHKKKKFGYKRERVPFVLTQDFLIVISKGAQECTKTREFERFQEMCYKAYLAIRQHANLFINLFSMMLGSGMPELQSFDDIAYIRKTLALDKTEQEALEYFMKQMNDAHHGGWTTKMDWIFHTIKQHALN
T1 sequence (P27986 whole entry partner): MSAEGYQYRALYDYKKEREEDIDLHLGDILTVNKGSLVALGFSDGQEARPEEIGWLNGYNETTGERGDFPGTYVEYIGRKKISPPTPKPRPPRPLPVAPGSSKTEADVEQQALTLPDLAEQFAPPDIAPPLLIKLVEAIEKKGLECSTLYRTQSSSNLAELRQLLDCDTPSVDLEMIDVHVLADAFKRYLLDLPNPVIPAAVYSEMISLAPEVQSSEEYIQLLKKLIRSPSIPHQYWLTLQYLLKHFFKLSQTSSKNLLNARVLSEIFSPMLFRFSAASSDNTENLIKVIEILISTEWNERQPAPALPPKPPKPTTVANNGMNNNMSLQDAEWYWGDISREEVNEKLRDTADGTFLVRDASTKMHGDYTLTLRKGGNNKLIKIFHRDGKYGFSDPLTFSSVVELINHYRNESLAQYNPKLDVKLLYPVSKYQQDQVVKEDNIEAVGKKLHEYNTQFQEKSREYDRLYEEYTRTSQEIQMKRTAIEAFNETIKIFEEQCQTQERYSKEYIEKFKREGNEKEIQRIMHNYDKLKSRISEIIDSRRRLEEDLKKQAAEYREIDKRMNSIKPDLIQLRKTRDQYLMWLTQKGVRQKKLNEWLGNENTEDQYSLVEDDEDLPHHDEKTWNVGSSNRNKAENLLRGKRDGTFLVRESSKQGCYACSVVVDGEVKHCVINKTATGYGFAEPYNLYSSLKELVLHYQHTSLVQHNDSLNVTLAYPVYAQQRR

CCN1CCN(c2ccc(Nc3cc(Nc4cccc5c4N(C(C)=O)CC5)ccn3)cc2)CC1 [Compound 1938] was tested, and the “HDX difference (Da)” value (PK3CA_HUMAN peptide 326-333, time point 5 of 5) was -0.29 Da, the “HDX difference (%D)” value [1] was -1.6% and the “HDX difference (Da)” value [1] was -0.11 Da. For the same compound, the “HDX difference (%D)” value [2] was -0.186%, the “HDX difference (Da)” value [2] was -0.013 Da and the “HDX difference (%D)” value [3] was -0.0541%. For the same compound, the “HDX difference (Da)” value [3] was -0.00379 Da, the “HDX difference (%D)” value [4] was 0.367% and the “HDX difference (Da)” value [4] was 0.0257 Da. The “HDX difference (%D)” value [5] was 0.162%, the “HDX difference (Da)” value [5] was 0.0113 Da and the “HDX difference (%D)” value [6] was -1.7%. The “HDX difference (Da)” value [6] was -0.24 Da, the “HDX difference (%D)” value [7] was 0.845% and the “HDX difference (Da)” value [7] was 0.12 Da. For the same compound, the “HDX difference (%D)” value [8] was 0.00161%, the “HDX difference (Da)” value [8] was 0.000225 Da and the “HDX difference (%D)” value [9] was 1.1%. For the same compound, the “HDX difference (Da)” value [9] was 0.16 Da, the “HDX difference (%D)” value [10] was 0.6% and the “HDX difference (Da)” value [10] was 0.09 Da. The “HDX difference (%D)” value [11] was -0.8%, the “HDX difference (Da)” value [11] was -0.10 Da and the “HDX difference (%D)” value [12] was -1.0%. The “HDX difference (Da)” value [12] was -0.12 Da, the “HDX difference (%D)” value [13] was 0.8% and the “HDX difference (Da)” value [13] was 0.09 Da. For the same compound, the “HDX difference (%D)” value [14] was 0.0672%, the “HDX difference (Da)” value [14] was 0.00807 Da and the “HDX difference (%D)” value [15] was 0.6%. The “HDX difference (Da)” value [15] was 0.0745 Da, the “HDX difference (%D)” value [16] was -2.7% and the “HDX difference (Da)” value [16] was -0.30 Da. For the same compound, the “HDX difference (%D)” value [17] was 1.2%, the “HDX difference (Da)” value [17] was 0.14 Da and the “HDX difference (%D)” value [18] was -1.1%. For the same compound, the “HDX difference (Da)” value [18] was -0.12 Da, the “HDX difference (%D)” value [19] was -0.8% and the “HDX difference (Da)” value [19] was -0.08 Da. For the same compound, the “HDX difference (%D)” value [20] was 0.6%, the “HDX difference (Da)” value [20] was 0.07 Da and the “HDX difference (%D)” value [21] was -3.7%. For the same compound, the “HDX difference (Da)” value [21] was -0.33 Da, the “HDX difference (%D)” value [22] was -0.454% and the “HDX difference (Da)” value [22] was -0.04 Da. The “HDX difference (%D)” value [23] was -1.7%, the “HDX difference (Da)” value [23] was -0.15 Da and the “HDX difference (%D)” value [24] was -2.6%. For the same compound, the “HDX difference (Da)” value [24] was -0.23 Da, the “HDX difference (%D)” value [25] was 0.329% and the “HDX difference (Da)” value [25] was 0.03 Da. The “HDX difference, percentage” value (PK3CA_HUMAN peptide 457-466, time column 1 of 5, deuterium exchange time 0.005) was -0.467%, the “HDX difference, percentage” value (PK3CA_HUMAN peptide 457-466, time column 2 of 5, deuterium exchange time 0.05) was -0.449% and the “HDX difference, percentage” value (PK3CA_HUMAN peptide 457-466, time column 3 of 5, deuterium exchange time 0.5) was 0.346%. For the same compound, the “HDX difference, percentage” value (PK3CA_HUMAN peptide 457-466, time column 4 of 5, deuterium exchange time 5) was -0.9%, the “HDX difference, percentage” value (PK3CA_HUMAN peptide 457-466, time column 5 of 5) was -1.0% and the “HDX difference, percentage” value (PK3CA_HUMAN peptide 467-476, time column 1 of 5, deuterium exchange time 0.005) was -1.4%. For the same compound, the “HDX difference, percentage” value (PK3CA_HUMAN peptide 467-476, time column 2 of 5, deuterium exchange time 0.05) was -0.5%, the “HDX difference, percentage” value (PK3CA_HUMAN peptide 467-476, time column 3 of 5, deuterium exchange time 0.5) was -0.7% and the “HDX difference, percentage” value (PK3CA_HUMAN peptide 467-476, time column 4 of 5, deuterium exchange time 5) was -0.9%. The “HDX difference, percentage” value (PK3CA_HUMAN peptide 467-476, time column 5 of 5) was -0.552%, the “HDX difference, percentage” value (PK3CA_HUMAN peptide 477-486, time column 1 of 5, deuterium exchange time 0.005) was -1.6% and the “HDX difference, percentage” value (PK3CA_HUMAN peptide 477-486, time column 2 of 5, deuterium exchange time 0.05) was 0.186%. The “HDX difference, percentage” value (PK3CA_HUMAN peptide 477-486, time column 3 of 5, deuterium exchange time 0.5) was 0.327%, the “HDX difference, percentage” value (PK3CA_HUMAN peptide 477-486, time column 4 of 5, deuterium exchange time 5) was -0.0919% and the “HDX difference, percentage” value (PK3CA_HUMAN peptide 477-486, time column 5 of 5) was 0.0363%. The “HDX difference, percentage” value (PK3CA_HUMAN peptide 487-495, time column 1 of 5, deuterium exchange time 0.005) was -0.747%, the “HDX difference, percentage” value (PK3CA_HUMAN peptide 487-495, time column 2 of 5, deuterium exchange time 0.05) was 0.4% and the “HDX difference, percentage” value (PK3CA_HUMAN peptide 487-495, time column 3 of 5, deuterium exchange time 0.5) was 0.0115%. For the same compound, the “HDX difference, percentage” value (PK3CA_HUMAN peptide 487-495, time column 4 of 5, deuterium exchange time 5) was -0.8%, the “HDX difference, percentage” value (PK3CA_HUMAN peptide 487-495, time column 5 of 5) was -0.2% and the “HDX difference, percentage” value (PK3CA_HUMAN peptide 487-498, time column 1 of 5, deuterium exchange time 0.005) was -0.239%. For the same compound, the “HDX difference, percentage” value (PK3CA_HUMAN peptide 487-498, time column 2 of 5, deuterium exchange time 0.05) was -0.449%, the “HDX difference, percentage” value (PK3CA_HUMAN peptide 487-498, time column 3 of 5, deuterium exchange time 0.5) was 0.176% and the “HDX difference, percentage” value (PK3CA_HUMAN peptide 487-498, time column 4 of 5, deuterium exchange time 5) was -1.0%.
